In PubChem BioAssay (NCI):
Values joined by “and” are separate entries in the source; they are usually repeats but may differ in a detail not shown here. Identical values can stand only once.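 In this assay, cells in 96-well plates receive the compound at five concentrations for 48 hours. Endpoints are linearly interpolated between the surrounding concentrations. The concentration for 50% growth inhibition is given as GI50. At the TGI there is no net growth.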

Assays:
Assay in all cases: NCI anticancer screen, dose series, 48 h
RXF-631 renal = test system: RXF-631 renal
CCRF-CEM leukemia = test system: CCRF-CEM leukemia
HOP-18 NSCLC = test system: HOP-18 NSCLC
CAKI-1 renal = test system: CAKI-1 renal
EKVX NSCLC = test system: EKVX NSCLC
SNB-19 CNS = test system: SNB-19 CNS
SW-620 colon = test system: SW-620 colon
SK-MEL-28 melanoma = test system: SK-MEL-28 melanoma
OVCAR-4 ovarian = test system: OVCAR-4 ovarian
U251 CNS = test system: U251 CNS
UO-31 renal = test system: UO-31 renal
ACHN renal = test system: ACHN renal
MOLT-4 leukemia = test system: MOLT-4 leukemia
HCT-15 colon = test system: HCT-15 colon
SNB-78 CNS = test system: SNB-78 CNS
KM20L2 colon = test system: KM20L2 colon
M14 melanoma = test system: M14 melanoma
UACC-62 melanoma = test system: UACC-62 melanoma
HOP-92 NSCLC = test system: HOP-92 NSCLC
SF-268 CNS = test system: SF-268 CNS
OVCAR-3 ovarian = test system: OVCAR-3 ovarian
K-562 leukemia = test system: K-562 leukemia
SK-OV-3 ovarian = test system: SK-OV-3 ovarian
A549 NSCLC = test system: A549 NSCLC
SK-MEL-5 melanoma = test system: SK-MEL-5 melanoma
MDA-MB-231 breast = test system: MDA-MB-231 breast
LOX IMVI melanoma = test system: LOX IMVI melanoma
RXF 393 renal = test system: RXF 393 renal
LXFL 529 NSCLC = test system: LXFL 529 NSCLC
A498 renal = test system: A498 renal
M19-MEL melanoma = test system: M19-MEL melanoma
KM12 colon = test system: KM12 colon
RPMI-8226 leukemia = test system: RPMI-8226 leukemia
DLD-1 colon = test system: DLD-1 colon
SR leukemia = test system: SR leukemia
PC-3 prostate = test system: PC-3 prostate
786-0 renal = test system: 786-0 renal
SN12C renal = test system: SN12C renal
HCT-116 colon = test system: HCT-116 colon
NCI-H23 lung = test system: NCI-H23 lung
OVCAR-5 ovarian = test system: OVCAR-5 ovarian
OVCAR-8 ovarian = test system: OVCAR-8 ovarian
HL-60(TB) leukemia = test system: HL-60(TB) leukemia
SNB-75 CNS = test system: SNB-75 CNS
HOP-62 NSCLC = test system: HOP-62 NSCLC
MDA-MB-435 = test system: MDA-MB-435
MDA-N = test system: MDA-N
NCI-H460 lung = test system: NCI-H460 lung
SF-295 CNS = test system: SF-295 CNS
NCI-H522 lung = test system: NCI-H522 lung
HCC-2998 colon = test system: HCC-2998 colon
IGROV1 ovarian = test system: IGROV1 ovarian
UACC-257 melanoma = test system: UACC-257 melanoma
MALME-3M melanoma = test system: MALME-3M melanoma
SK-MEL-2 melanoma = test system: SK-MEL-2 melanoma
HT29 colon = test system: HT29 colon
SF-539 CNS = test system: SF-539 CNS
DMS 114 small cell lung = test system: DMS 114 small cell lung
NCI-H226 lung = test system: NCI-H226 lung
TK-10 renal = test system: TK-10 renal
MCF7 breast = test system: MCF7 breast
COLO 205 colon = test system: COLO 205 colon

## CN1CCN(CCn2c3c4ccccc4ccc3c3oc(=O)c4ccccc4c32)CC1
RXF-631 renal
  TGI: 17.8 µM
CCRF-CEM leukemia
  TGI: 3.2 µM and 3.94 µM
HOP-18 NSCLC
  TGI: 25.1 µM
CAKI-1 renal
  TGI: 16.7 µM
EKVX NSCLC
  TGI: 25.5 µM
SNB-19 CNS
  GI50: 1.5 µM
  TGI: 7.24 µM and 10.9 µM
SW-620 colon
  TGI: 4.29 µM and 5.33 µM
SK-MEL-28 melanoma
  GI50: 1.99 µM
  TGI: 3.47 µM and 9.37 µM
OVCAR-4 ovarian
  TGI: 6.85 µM
U251 CNS
  TGI: 6.25 µM and 6.92 µM
UO-31 renal
  GI50: 3.08 µM
  TGI: 11.9 µM
ACHN renal
  TGI: 7.42 µM
MOLT-4 leukemia
  TGI: 3.2 µM and 4.38 µM
HCT-15 colon
  GI50: 1.61 µM
  TGI: 3.21 µM and 7.92 µM
SNB-78 CNS
  TGI: 16.4 µM
KM20L2 colon
  TGI: 7.79 µM
M14 melanoma
  GI50: 1.94 µM
  TGI: 3.43 µM and 3.29 µM
UACC-62 melanoma
  GI50: 2.14 µM
  TGI: 4.74 µM and 5.11 µM
HOP-92 NSCLC
  GI50: 3.44 µM
  TGI: 17 µM
SF-268 CNS
  GI50: 5.03 µM
  TGI: 14 µM
OVCAR-3 ovarian
  TGI: 23.7 µM
K-562 leukemia
  TGI: 2.89 µM and 4.29 µM
SK-OV-3 ovarian
  TGI: 27.4 µM
A549 NSCLC
  GI50: 2.91 µM
  TGI: 8.92 µM and 8.94 µM
SK-MEL-5 melanoma
  TGI: 3.41 µM
MDA-MB-231 breast
  TGI: 3.59 µM
LOX IMVI melanoma
  GI50: 1.61 µM and 4.84 µM
RXF 393 renal
  GI50: 5.75 µM
  TGI: > 1 µM and 19.9 µM
LXFL 529 NSCLC
  TGI: 8.07 µM
A498 renal
  GI50: 18.7 µM
  TGI: 38.3 µM
M19-MEL melanoma
  TGI: 24.7 µM
KM12 colon
  GI50: 2.13 µM
  TGI: 4.54 µM and 6.56 µM
RPMI-8226 leukemia
  GI50: 1.84 µM
  TGI: 3.79 µM and 15 µM
DLD-1 colon
  TGI: 6.13 µM
SR leukemia
  TGI: 3.13 µM
PC-3 prostate
  TGI: 4.59 µM
786-0 renal
  GI50: 1.96 µM
  TGI: 3.76 µM and 4.07 µM
SN12C renal
  GI50: 4.44 µM
  TGI: 3.05 µM
HCT-116 colon
  GI50: 1.55 µM
  TGI: 2.88 µM and 3.79 µM
NCI-H23 lung
  GI50: 1.92 µM
  TGI: 3.72 µM and 15.7 µM
OVCAR-5 ovarian
  TGI: 10.4 µM
OVCAR-8 ovarian
  GI50: 2.32 µM
  TGI: 5.13 µM and 3.37 µM
HL-60(TB) leukemia
  TGI: 3.47 µM
SNB-75 CNS
  TGI: 16.6 µM
HOP-62 NSCLC
  GI50: 10.1 µM
  TGI: 4.65 µM and 23.7 µM
MDA-MB-435
  TGI: 3.35 µM
MDA-N
  TGI: 2.95 µM
NCI-H460 lung
  GI50: 1.46 µM
  TGI: 4.09 µM and 2.95 µM
SF-295 CNS
  GI50: 1.88 µM
  TGI: 4.5 µM and 9.45 µM
NCI-H522 lung
  GI50: 1.68 µM
  TGI: 3.29 µM and 10.4 µM
HCC-2998 colon
  GI50: 4.22 µM
  TGI: 3.74 µM and 18.7 µM
IGROV1 ovarian
  GI50: > 1 µM
  TGI: > 1 µM and 31.1 µM
UACC-257 melanoma
  GI50: > 1 µM
  TGI: > 1 µM and 2.96 µM
MALME-3M melanoma
  TGI: 29.3 µM
SK-MEL-2 melanoma
  TGI: 27.7 µM
HT29 colon
  GI50: 1.65 µM
  TGI: 3.3 µM and 2.71 µM
SF-539 CNS
  TGI: 3.47 µM and 3.08 µM
DMS 114 small cell lung
  TGI: 3.84 µM
NCI-H226 lung
  TGI: 33.5 µM
TK-10 renal
  TGI: 22.5 µM
MCF7 breast
  TGI: 3.03 µM
COLO 205 colon
  GI50: 2 µM
  TGI: 3.4 µM and 5.14 µM

## COc1ccc(NC(=O)C2C(=O)N(c3ccc(OC)cc3)C(=O)/C2=N\N)cc1 (stereo not drawn)
RXF-631 renal
  TGI: > 100 µM
CCRF-CEM leukemia
  TGI: > 100 µM
HOP-18 NSCLC
  TGI: > 100 µM
EKVX NSCLC
  TGI: > 100 µM
SNB-19 CNS
  TGI: > 100 µM
SW-620 colon
  TGI: > 100 µM
SK-MEL-28 melanoma
  TGI: > 100 µM
U251 CNS
  TGI: > 100 µM
UO-31 renal
  TGI: > 100 µM
ACHN renal
  TGI: > 100 µM
MOLT-4 leukemia
  TGI: > 100 µM
HCT-15 colon
  TGI: > 100 µM
SNB-78 CNS
  TGI: > 100 µM
KM20L2 colon
  TGI: > 100 µM
M14 melanoma
  TGI: > 100 µM
UACC-62 melanoma
  TGI: > 100 µM
HOP-92 NSCLC
  TGI: > 100 µM
SF-268 CNS
  TGI: > 100 µM
K-562 leukemia
  TGI: > 100 µM
A549 NSCLC
  TGI: > 100 µM
SK-MEL-5 melanoma
  TGI: > 100 µM
RXF 393 renal
  TGI: > 100 µM
LXFL 529 NSCLC
  TGI: > 100 µM
A498 renal
  TGI: > 100 µM
M19-MEL melanoma
  TGI: > 100 µM
KM12 colon
  TGI: > 100 µM
DLD-1 colon
  TGI: > 100 µM
SR leukemia
  TGI: > 100 µM
786-0 renal
  TGI: > 100 µM
SN12C renal
  TGI: > 100 µM
HCT-116 colon
  TGI: > 100 µM
NCI-H23 lung
  TGI: > 100 µM
OVCAR-5 ovarian
  TGI: > 100 µM
OVCAR-8 ovarian
  TGI: > 100 µM
HL-60(TB) leukemia
  TGI: > 100 µM
HOP-62 NSCLC
  TGI: > 100 µM
NCI-H460 lung
  TGI: > 100 µM
SF-295 CNS
  TGI: > 100 µM
NCI-H522 lung
  TGI: > 100 µM
HCC-2998 colon
  TGI: > 100 µM
IGROV1 ovarian
  TGI: > 100 µM
UACC-257 melanoma
  TGI: > 100 µM
MALME-3M melanoma
  TGI: > 100 µM
SK-MEL-2 melanoma
  TGI: > 100 µM
HT29 colon
  TGI: > 100 µM
SF-539 CNS
  TGI: > 100 µM
DMS 114 small cell lung
  TGI: > 100 µM
TK-10 renal
  TGI: > 100 µM
COLO 205 colon
  TGI: > 100 µM
